The target of one assay is chymotrypsin (Bos taurus, UniProt P00766). The experiment in a line: Protease inhibition assay: chymotrypsin. In kind it is biochemical. To be noted: for inhibition of chymotrypsin, in words: discussion of Table 5. The procedure: (§1) Optical rotation values were obtained on a Jasco P-1010 polarimeter at the sodium D line (589 nm; concentrations are reported in g/100 mL. UV spectra were recorded on an Agilent 8453 spectrophotometer (Santa Clara, California, CA, USA). IR spectra were recorded on a Bruker Tensor 27 FT-IR instrument (Billerica, Massachusetts, MA, USA). NMR spectra were recorded on a Bruker DRX-500 spectrometer at 500.13 MHz for ^1H and 125.76 MHz for ^13C and a Bruker Avance 400 Spectrometer at 400.13 MHz for ^1H, 100.62 MHz for ^13C (Billerica, Massachusetts, MA, USA). DEPT, COSY-45, gTOCSY, gROESY, gHSQC, gHMQC and gHMBC spectra were recorded using standard Bruker pulse sequences. Mass spectra and MS/MS analyses were recorded on a Waters MaldiSynapt instrument (Milford, Massachusetts, MA, USA). HPLC separations were performed on a Jasco HPLC system (Halifax, Nova-Scotia, NS, Canada) (Model PU-2080-plus pump, Model LG-2080-04 Quaternary gradient unit and Model MD-2010-plus Multi-wavelength detector). An Elisa ELx808 reader (Bio-Tek Instruments, Inc (Winooski, VT, USA)) was used for protease inhibition assays.
(§2) The procedures used to determine the inhibitory activity of the new compounds on trypsin and chymotrypsin were described in a previous paper. The range of concentrations used in the assays was between 45.5 μM and 0.011 μM.

The target in assay [1] is T1, trypsin (Bos taurus, UniProt P00760).
T1 sequence (P00760 24-246): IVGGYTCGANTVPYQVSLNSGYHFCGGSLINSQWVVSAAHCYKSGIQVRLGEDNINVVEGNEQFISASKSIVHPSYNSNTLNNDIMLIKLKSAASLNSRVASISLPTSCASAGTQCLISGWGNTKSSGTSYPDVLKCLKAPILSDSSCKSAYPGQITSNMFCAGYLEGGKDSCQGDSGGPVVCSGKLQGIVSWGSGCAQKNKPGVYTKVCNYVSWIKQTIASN
The experiment in a line: Protease inhibition assay: trypsin. Particulars: discussion of Table 5. In kind it is biochemical. As for the experimental part:
as §1, §2

For assay [2], the target named is T1, trypsin. More on the design: method as in PMID 22280481. To be noted: read-out: IC50 (against trypsin); cited from earlier work.

Where two headings read alike, the source gives them in different places. *1 amine or outer side, *2 acyl side, *3 side chain or, on linkers, in order; H or OH if unused. Where a SMILES comes first, the peptide text is derived from it. Bridges are numbered along the chain shown (N, C = ends). [ ]: non-standard residue; d: D form. NMehTyr = CN[C@@H](CCc1ccc(O)cc1)C(=O)O; hPhe = N[C@@H](CCc1ccccc1)C(=O)O; CO = O=C([*:1])[*:2]

One may read the IC50 as the midpoint of a concentration-inhibition curve. Consider `CC(C)=CCN(CCCCNC(=O)C1CC2CCC(O)CC2N1C(=O)C(Cc1ccccc1)NC(=O)C(O)Cc1ccc(O)cc1)C(=N)N` (centres unmarked) [Aeruginosin KB676 (1), Aeruginosin KB676], for which, on chymotrypsin (concentration range 45.5 μM to 0.011 μM, read-out: Chymotrypsin (IC50 in μM)), the IC50 is more than 45.5 µM. Further, the “inhibition of trypsin, in words” value against trypsin [1] is “weak inhibitory activity”.
At chymotrypsin, `CC[C@H](C)[C@@H]1NC(=O)[C@H](NC(=O)N[C@@H](CCCNC(=N)N)C(=O)O)CCCCNC(=O)[C@H]([C@@H](C)CC)NC(=O)[C@H](CCc2ccc(O)cc2)N(C)C(=O)[C@H](CCc2ccccc2)NC1=O` [Anabaenopeptin KB906 (3), Anabaenopeptin KB906] ({Arg-CO}-[dK]I[hPhe][NMehTyr]I; lactam 1-C) gave a half-maximal inhibitory concentration (IC50) of more than 45.5 µM.
For `CCCC(=O)N[C@@H](CC(=O)O)C(=O)N[C@@H]1C(=O)N[C@@H](CCCNC(=N)N)C(=O)N[C@H]2CC[C@@H](O)N(C2=O)[C@@H](C(C)C)C(=O)N(C)[C@@H](Cc2ccccc2)C(=O)N[C@@H]([C@@H](C)CC)C(=O)O[C@@H]1C` [Micropeptin KB928 (5), Micropeptin KB928], the IC50 at chymotrypsin is more than 45.5 µM.
As to `CCCC(=O)N[C@@H](CC(=O)OC)C(=O)N[C@@H]1C(=O)N[C@@H](CCCNC(=N)N)C(=O)N[C@H]2CC[C@@H](OC)N(C2=O)[C@@H](C(C)C)C(=O)N(C)[C@@H](Cc2ccccc2)C(=O)N[C@@H]([C@@H](C)CC)C(=O)O[C@@H]1C` [Micropeptin KB956 (6), Micropeptin KB956], the IC50 on chymotrypsin was more than 45.5 µM.
For `CCCCCC(=O)N[C@@H](CC(=O)OC)C(=O)N[C@@H]1C(=O)N[C@@H](CCCNC(=N)N)C(=O)N[C@H]2CC[C@@H](O)N(C2=O)[C@@H](C(C)C)C(=O)N(C)[C@@H](Cc2ccccc2)C(=O)N[C@@H]([C@@H](C)CC)C(=O)O[C@@H]1C` [Micropeptin KB970A (7), Micropeptin KB970A], at chymotrypsin, the IC50 is more than 45.5 µM.
`CCCCCC(=O)N[C@@H](CC(=O)O)C(=O)N[C@@H]1C(=O)N[C@@H](CCCNC(=N)N)C(=O)N[C@H]2CC[C@@H](OC)N(C2=O)[C@@H](C(C)C)C(=O)N(C)[C@@H](Cc2ccccc2)C(=O)N[C@@H]([C@@H](C)CC)C(=O)O[C@@H]1C` [Micropeptin KB970B (8), Micropeptin KB970B]: at chymotrypsin, the IC50 was more than 45.5 µM.
In turn, `CCCCCC(=O)N[C@@H](CC(=O)OC)C(=O)N[C@@H]1C(=O)N[C@@H](CCCNC(=N)N)C(=O)N[C@H]2CC[C@@H](OC)N(C2=O)[C@@H](C(C)C)C(=O)N(C)[C@@H](Cc2ccccc2)C(=O)N[C@@H](C(C)C)C(=O)O[C@@H]1C` [Micropeptin KB970C (10), Micropeptin KB970C] yielded an IC50 at chymotrypsin of more than 45.5 µM.
`CCCCCC(=O)N[C@@H](CC(=O)OC)C(=O)N[C@@H]1C(=O)N[C@@H](CCCNC(=N)N)C(=O)N[C@H]2CC[C@@H](OC)N(C2=O)[C@@H](C(C)C)C(=O)N(C)[C@@H](Cc2ccccc2)C(=O)N[C@@H]([C@@H](C)CC)C(=O)O[C@@H]1C` [Micropeptin KB984 (9), Micropeptin KB984] displayed an IC50 against chymotrypsin of more than 45.5 µM.
On to `CC[C@H](C)[C@H]1C(=O)N(C)[C@@H](Cc2ccccc2)C(=O)N[C@@H](C(C)C)C(=O)O[C@H](C)[C@H](NC(=O)[C@H](CC(N)=O)NC(=O)[C@H](O)Cc2ccc(O)cc2)C(=O)N[C@@H](CC(C)C)C(=O)N[C@H]2CC[C@@H](OC)N1C2=O` [Micropeptin KB992 (12), Micropeptin KB992], for which, on chymotrypsin, the IC50 was 0.87 µM and the “inhibition of chymotrypsin, in words” value was “inhibition of chymotrypsin”.
As for `CC[C@H](C)[C@@H]1NC(=O)[C@H](Cc2ccccc2)N(C)C(=O)[C@H](C(C)C)N2C(=O)[C@H](CC[C@H]2O)NC(=O)[C@H](C[C@H]2C=C[C@H](O)CC2)NC(=O)[C@@H](NC(=O)[C@H](CCC(N)=O)NC(=O)[C@H](O)Cc2ccc(O)cc2)[C@@H](C)OC1=O` [Micropeptin KB1046 (13), Micropeptin KB1046], on chymotrypsin, the IC50 came out at 0.22 µM and the “inhibition of chymotrypsin, in words” value was “inhibition of chymotrypsin”.
In the case of `CCCCCC(=O)N[C@@H](CC(=O)OC)C(=O)N[C@@H]1C(=O)N[C@@H](CCCNC(=N)N)C(=O)N[C@H]2CC[C@@H](OC)N(C2=O)[C@@H]([C@@H](C)CC)C(=O)N(C)[C@@H](Cc2ccc(O)c(Cl)c2)C(=O)N[C@@H]([C@H](C)CC)C(=O)O[C@@H]1C` [Micropeptin KB1048 (11), Micropeptin KB1048], on chymotrypsin, 0.63 µM corresponded to half-maximal inhibition (IC50) and the “inhibition of chymotrypsin, in words” value is on record as “inhibition of chymotrypsin”.
The molecule `CC(C)C[C@@H]1NC(=O)[C@@H]2CCCN2C(=O)[C@H](C)NC(=O)[C@H](CCC(N)=O)NC(=O)[C@H](C)NC(=O)[C@H](Cc2ccccc2)NC(=O)[C@H](Cc2ccccc2)NC(=O)[C@H](Cc2ccccc2)NC1=O` [Microphycin KB921 (2), Microphycin KB921] (cyclo(APLFFFAQ)) gave a half-inhibitory concentration (IC50) at chymotrypsin of more than 45.5 µM.
In the case of `NC(N)=NCCCCNC(=O)[C@H]1C[C@H]2CC[C@@H](O)C[C@H]2N1C(=O)[C@@H](Cc1ccccc1)NC(=O)[C@H](O)Cc1ccc(O)cc1` [aeruginosin KT608B], the IC50 at trypsin [2] is 1.3 µM.

Source of the values: paper PMC4413215, “New Prenylated Aeruginosin, Microphycin, Anabaenopeptin and Micropeptin Analogues from a Microcystis Bloom Material Collected in Kibbutz Kfar Blum, Israel” (Marine Drugs, 2015).
